Measurements: patent publication US11225499B2, “Chiral platinum complex, method for preparing the same, and method for using the same” (Hefei University of Technology, priority 2019, dated 2022)

Columns and labels:
[1] = test system: Human oral cancer cells KB-VIN; experiment: Anti-cancer activity, KB-VIN cells; format: cell-based; conditions: KB-VIn (anti-drug-resistant nasopharyngeal carcinoma)
[2] = test system: KB (nasopharyngeal carcinoma)

## [1,4-(4R)-diphenyl-2-oxazolinyl benzene] platinum nitrate complex [Platinum complex (I)]
[1]
  inhibitory activity ED50: < 10.0 µg/mL
[2]
  inhibitory activity ED50: < 10.0 µg/mL
